# Measurements from US20170334899A1, “AMINO-SUBSTITUTED ISOTHIAZOLES” (Bayer Pharma Aktiengesellschaft, priority 2014, published 2017).
# Legend:
# HeLa-MaTu-ADR = assay: Proliferation assay (crystal violet), HeLa-MaTu-ADR; type: cell-based; conditions: 96 h; HeLa-MaTu-ADR cells; 4 days incubation; crystal violet staining; read-out: IC50 inhibition of proliferation, HeLa-MaTu-ADR
# Summary of the method: (§1)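 Absorbance at 595 nm of crystal-violet-stained cells after 4 days' exposure to 0.001–10 μM compound (0.5% DMSO). Values normalized to a day-0 plate (0%) and untreated cells (100%); IC50 by 4-parameter fit.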
# B16F10 = assay: Proliferation assay (crystal violet), B16F10; type: cell-based; conditions: Mus musculus, B16-F10, 96 h; B16F10 cells; 4 days incubation; crystal violet staining; read-out: IC50 inhibition of proliferation, B16F10
# Summary of the method: as §1
# NCI-H460 = assay: Proliferation assay (crystal violet), NCI-H460; type: cell-based; conditions: Homo sapiens, 96 h; NCI-H460 cells; 4 days incubation; crystal violet staining; read-out: IC50 inhibition of proliferation, NCI-H460
# Summary of the method: as §1
# HeLa = assay: Proliferation assay (crystal violet), HeLa; type: cell-based; conditions: Homo sapiens, HeLa, 96 h, HeLa cells; 4 days incubation; crystal violet staining; read-out: IC50 inhibition of proliferation, HeLa
# Summary of the method: as §1
# CDK2/CycE = target: T1, CDK2/CycE (Homo sapiens, UniProt P24941); assay: CDK2/CycE kinase assay (TR-FRET); type: biochemical; conditions: avg, read-out: CDK2 avg (IC50 [mol/l])
# T1 construct: GST; purchased ProQinase GmbH (Freiburg, Germany); host or cells: insect cells (Sf9)
# Summary of the method: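 Read-out is a TR-FRET 665/620 nm emission ratio from EDTA-stopped reactions detected with anti-pRB(pSer807/pSer811), Eu-labelled anti-mouse IgG and streptavidin-XL665, scaled between no-enzyme and uninhibited wells. Reaction: Sf9-expressed GST-CDK2/GST-CycE, 15 min compound preincubation, 10 μM ATP, 0.75 μM biotin-peptide, 25 min, 22° C., pH 8.0 Tris buffer.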
# Caco-2 = assay: Proliferation assay (crystal violet), Caco-2; type: cell-based; conditions: Homo sapiens, 96 h; Caco-2 cells; 4 days incubation; crystal violet staining; read-out: IC50 inhibition of proliferation, Caco2
# Summary of the method: as §1
# DU145 = assay: Proliferation assay (crystal violet), DU145; type: cell-based; conditions: Homo sapiens, DU-145, 96 h; DU145 cells; 4 days incubation; crystal violet staining; read-out: IC50 inhibition of proliferation, DU145
# Summary of the method: as §1
IC50 (HeLa-MaTu-ADR) [nM],IC50 (B16F10) [nM],IC50 (NCI-H460) [nM],IC50 (HeLa) [nM],IC50 (CDK2/CycE) [nM],IC50 (Caco-2) [nM],IC50 (DU145) [nM],SMILES
880,950,730,1200,≥ 20000,1100,3000,"Cc1nsc(Nc2cnc3ccccc3n2)c1C(=O)Nc1ccc(OC2CCCN(C(=O)OC(C)(C)C)C2)nc1 (stereo not drawn) [Example 31, tert-Butyl 3-{[5-({[3-methyl-5-(quinoxalin-2-ylamino)-1,2-thiazol-4-yl]carbonyl}-amino)pyridin-2-yl]oxy}piperidine-1-carboxylate]"
230,390,310,340,≥ 20000,350,640,"Cc1nsc(Nc2ccc(C#N)cn2)c1C(=O)Nc1ccc(OC2CCN(CC(F)(F)F)CC2)nc1 [Example 30, 5-[(5-Cyanopyridin-2-yl)amino]-3-methyl-N-(6-{[1-(2,2,2-trifluoroethyl)piperidin-4-yl]oxy}pyridin-3-yl)-1,2-thiazole-4-carboxamide]"
,,,990,≥ 20000,,,"Cc1nsc(Nc2cnc(C(F)(F)F)cn2)c1C(=O)Nc1ccc(OCC2CCN(CCF)CC2)nc1 [Example 344, N-(6-{[1-(2-fluoroethyl)piperidin-4-yl]methoxy}pyridin-3-yl)-3-methyl-5-{[5-(trifluoromethyl)pyrazin-2-yl]amino}-1,2-thiazole-4-carboxamide]"
,,,370,≥ 20000,,,"Cc1nsc(Nc2cnc(C(F)(F)F)cn2)c1C(=O)Nc1ccc(OCC2CCCN(CC(F)F)C2)nc1 (stereo not drawn) [Example 327, N-(6-{[1-(2,2-difluoroethyl)piperidin-3-yl]methoxy}pyridin-3-yl)-3-methyl-5-{[5-(trifluoromethyl)pyrazin-2-yl]amino}-1,2-thiazole-4-carboxamide]"
,,,410,> 20000,,,"Cc1nsc(Nc2cnc(C(F)(F)F)cn2)c1C(=O)Nc1ccc(O[C@@H]2CCN(CCC(F)(F)F)C2)nc1 [Example 381, 3-methyl-5-{[5-(trifluoromethyl)pyrazin-2-yl]amino}-N-(6-{[(3R)-1-(3,3,3-trifluoropropyl)pyrrolidin-3-yl]oxy}pyridin-3-yl)-1,2-thiazole-4-carboxamide]"
,,,620,≥ 20000,,,"Cc1nsc(Nc2cnc(C(F)(F)F)cn2)c1C(=O)Nc1ccc(OCC2CCCN(CCF)C2)nc1 (stereo not drawn) [Example 325, N-(6-{[1-(2-fluoroethyl)piperidin-3-yl]methoxy}pyridin-3-yl)-3-methyl-5-{[5-(trifluoromethyl)pyrazin-2-yl]amino}-1,2-thiazole-4-carboxamide]"
,,,350,≥ 20000,,,"Cc1nsc(Nc2cnc(C(F)(F)F)cn2)c1C(=O)Nc1ccc(OCCN(C)CC(F)F)nc1 [Example 349, N-(6-{2-[(2,2-difluoroethyl)(methyl)amino]ethoxy}pyridin-3-yl)-3-methyl-5-{[5-(trifluoromethyl)pyrazin-2-yl]amino}-1,2-thiazole-4-carboxamide]"
,,,320,> 20000,,,"Cc1nsc(Nc2cnc(C(F)(F)F)cn2)c1C(=O)Nc1ccc(O[C@H]2CCCN(CCC(F)(F)F)C2)nc1 [Example 390, 3-methyl-5-{[5-(trifluoromethyl)pyrazin-2-yl]amino}-N-(6-{[(3S)-1-(3,3,3-trifluoropropyl)piperidin-3-yl]oxy}pyridin-3-yl)-1,2-thiazole-4-carboxamide]"
,,,3700,≥ 20000,,,"Cc1nsc(Nc2ccc(C#N)cn2)c1C(=O)Nc1ccc(OC2CCNCC2)nc1 [Example 28, 5-[(5-Cyanopyridin-2-yl)amino]-3-methyl-N-[6-(piperidin-4-yloxy)pyridin-3-yl]-1,2-thiazole-4-carboxannide]"
,,,340,> 20000,,,"Cc1nsc(Nc2cnc(C(F)(F)F)cn2)c1C(=O)Nc1ccc(O[C@H]2CCN(CC(F)(F)F)C[C@@H]2F)nc1 [Example 363, N-(6-{[(3S,4S)-3-fluoro-1-(2,2,2-trifluoroethyl)piperidin-4-yl]oxy}pyridin-3-yl)-3-methyl-5-{[5-(trifluoromethyl)pyrazin-2-yl]amino}-1,2-thiazole-4-carboxamide]"
,,,370,≥ 20000,,,"Cc1nsc(Nc2cnc(C(F)(F)F)cn2)c1C(=O)Nc1ccc(F)c(OCC2CCCN(CC(F)(F)F)C2)c1 (stereo not drawn) [Example 337, N-(4-fluoro-3-{[1-(2,2,2-trifluoroethyl)piperidin-3-yl]methoxy}phenyl)-3-methyl-5-{[5-(trifluoromethyl)pyrazin-2-yl]amino}-1,2-thiazole-4-carboxamide]"
,,,1500,> 20000,,,"Cc1nsc(Nc2cnc(C(F)(F)F)cn2)c1C(=O)Nc1ccc(N2CCN(CC(F)F)CC2)cn1 [Example 372, N-{5-[4-(2,2-difluoroethyl)piperazin-1-yl]pyridin-2-yl}-3-methyl-5-{[5-(trifluoromethyl)pyrazin-2-yl]amino}-1,2-thiazole-4-carboxamide]"
,,,920,> 20000,,,"Cc1nsc(Nc2cnc(C(F)(F)F)cn2)c1C(=O)Nc1ccc(N2CCN(CCC(F)(F)F)CC2)cn1 [Example 374, 3-methyl-5-{[5-(trifluoromethyl)pyrazin-2-yl]amino}-N-{5-[4-(3,3,3-trifluoropropyl)piperazin-1-yl]pyridin-2-yl}-1,2-thiazole-4-carboxamide]"
